Assay results published in US10414811B2, “Protease-resistant lipidated GLP-1 analogs” (MEDIMMUNE LIMITED, priority 2015, dated 2019).
Where two headings read alike, the source gives them in different places. Numbered stars: 1 amine (or outer) side, 2 acyl side, 3 side chain; on linkers, the order of the positions; unused ones are H or OH. Square brackets hold non-standard residues; d marks the D form. Side chains are listed from the residue outwards. Peptide text beside a SMILES is read from it. * marks the point of attachment. γGlu = O=C(O)[C@H](CCC(=O)[*:2])N[*:1]; αMeF = C[C@](N)(Cc1ccccc1)C(=O)O; αMeK = C[C@](N)(CCCCN)C(=O)O; Lauroyl = CCCCCCCCCCCC(=O)*; αMeS = C[C@](N)(CO)C(=O)O; AEEA = NCCOCCOCC(=O)O; Aib = CC(C)(N)C(=O)O

Tests used:
[1] = target: T1, human glucagon receptor (GCGR) (Homo sapiens, UniProt P47871); assay: cAMP assay, human GCGR cells; type: cell-based
T1 construct: expressed in transfected cells
T1 sequence (P47871 26-477): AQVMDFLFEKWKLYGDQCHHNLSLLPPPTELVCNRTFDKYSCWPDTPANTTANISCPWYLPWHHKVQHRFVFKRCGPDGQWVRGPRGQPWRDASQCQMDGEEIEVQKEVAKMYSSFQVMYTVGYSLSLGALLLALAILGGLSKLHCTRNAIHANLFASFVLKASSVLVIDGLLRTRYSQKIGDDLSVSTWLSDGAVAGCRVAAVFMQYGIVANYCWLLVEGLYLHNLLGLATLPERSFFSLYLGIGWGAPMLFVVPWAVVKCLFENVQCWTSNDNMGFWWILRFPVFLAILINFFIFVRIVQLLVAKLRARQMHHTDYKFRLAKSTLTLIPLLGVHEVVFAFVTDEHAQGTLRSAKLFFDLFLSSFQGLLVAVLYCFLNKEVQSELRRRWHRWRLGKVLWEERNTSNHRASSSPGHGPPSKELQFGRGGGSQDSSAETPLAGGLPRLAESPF
Experimental: (§1) Sample dilutions are made in duplicate.
(§2) A frozen cryo-vial of cells expressing the receptor of interest is thawed rapidly in a water-bath, transferred to pre-warmed assay buffer and spun at 240×g for 5 minutes. Cells are re-suspended in assay buffer at a batch-dependent optimized concentration (e.g. hGCGR cells at 2×10^5 cells/ml, hGLP-1R and hGIPR cells at 1×10^5 cells/ml).
(§3) To this, 5 μL cell suspension is added and the plates incubated at room temperature for 30 minutes.
(§4) cAMP levels are measured using a commercially available cAMP dynamic 2 HTRF kit (Cisbio, Cat #62AM4PEJ), following the two step protocol as per manufacturer's recommendations. In brief; anti-cAMP cryptate (donor fluorophore) and cAMP-d2 (acceptor fluorophore) are made up separately by diluting each 1/20 in conjugate & lysis buffer provided in the kit. 5 μL anti-cAMP cryptate is added to wells of the assay plate, and 5 μL cAMP-d2 is added to wells except non-specific binding (NSB) wells, to which conjugate and lysis buffer are added. […] EC50 values of the synthetic peptides determined in cAMP assays are then determined.
(§5) Data is transformed to % Delta F as described in the manufacturer's guidelines and analyzed by 4-parameter logistic fit to determine EC50 values. […] To compare the balance of activities at the GLP-1R and GCGR between different peptides and across different conditions, these can be correlated, where the EC50's are related to those of comparator peptides.

[2] = target: T2, human glucose-dependent insulinotropic peptide receptor (GIPR) (Homo sapiens, UniProt P48546); assay: cAMP assay, human GIPR cells; type: cell-based
T2 construct: expressed in transfected cells
T2 sequence (P48546 22-466): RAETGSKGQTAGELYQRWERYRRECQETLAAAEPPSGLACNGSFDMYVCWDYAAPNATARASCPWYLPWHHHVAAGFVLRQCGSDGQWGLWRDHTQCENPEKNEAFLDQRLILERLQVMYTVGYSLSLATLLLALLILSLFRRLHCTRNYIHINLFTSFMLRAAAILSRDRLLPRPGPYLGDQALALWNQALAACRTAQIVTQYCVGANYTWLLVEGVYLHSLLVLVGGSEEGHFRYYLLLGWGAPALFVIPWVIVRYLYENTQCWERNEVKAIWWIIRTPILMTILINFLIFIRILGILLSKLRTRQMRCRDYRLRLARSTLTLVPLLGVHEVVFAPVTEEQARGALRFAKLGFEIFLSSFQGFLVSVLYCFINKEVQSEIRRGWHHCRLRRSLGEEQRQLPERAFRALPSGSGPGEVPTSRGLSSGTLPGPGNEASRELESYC
Experimental: as §1, §2, §3, §4, §5

[3] = cAMP assay, first determination (n1), read-out: Primary assay EC50 Gluc-R (n1)
[4] = cAMP assay, second determination (n2), read-out: Primary assay EC50 Gluc-R (n2)
[5] = cAMP assay, first determination (n1), read-out: Primary assay EC50 GIP-R (n1)
[6] = cAMP assay, second determination (n2), read-out: Primary assay EC50 GIP-R (n2)
[7] = tris-lipidated peptides, second replicate, read-out: Primary assay EC50 Gluc-R (n2)
[8] = tris-lipidated peptides, first replicate, read-out: Primary assay EC50 GIP-R (n1)

Structure (SMILES)	EC50 [1, 3]	EC50 [1, 4]	EC50 [2, 5]	EC50 [2, 6]	EC50 [1, 7]	EC50 [2, 8]
CCCCCCCCCCCC(=O)N[C@@H](CCC(=O)NCCOCCOCC(=O)NCCOCCOCC(=O)NCCCC[C@H](NC(=O)[C@H](CC(=O)O)NC(=O)[C@H](CO)NC(=O)[C@@H](NC(=O)[C@](C)(Cc1ccccc1)NC(=O)[C@H](CO)NC(=O)CNC(=O)[C@H](CCC(=O)O)NC(=O)C(C)(C)NC(=O)[C@@H](N)Cc1c[nH]cn1)[C@@H](C)O)C(=O)N[C@@H](CO)C(=O)N[C@@H](CO)C(=O)N[C@@H](Cc1ccc(O)cc1)C(=O)N[C@@H](CC(C)C)C(=O)N[C@@H](CCC(=O)O)C(=O)NCC(=O)N[C@@H](CCC(=O)O)C(=O)N[C@@H](C)C(=O)N[C@@H](C)C(=O)N[C@@](C)(CCCCN)C(=O)N[C@@H](CCCCNC(=O)COCCOCCNC(=O)COCCOCCNC(=O)CC[C@H](NC(=O)CCCCCCCCCCC)C(=O)O)C(=O)N[C@@H](Cc1ccccc1)C(=O)N[C@H](C(=O)N[C@@H](C)C(=O)N[C@@H](Cc1ccccc1)C(=O)N[C@@H](CCCCNC(=O)COCCOCCNC(=O)COCCOCCNC(=O)CC[C@H](NC(=O)CCCCCCCCCCC)C(=O)O)C(=O)N[C@H](C(=O)N[C@@H](CCC(=O)O)C(=O)NCC(=O)NCC(N)=O)C(C)C)[C@@H](C)CC)C(=O)O [compound 474] (H-H[Aib]EGS[αMeF]TSDK([AEEA-AEEA-γGlu-Lauroyl])SSYLEGEAA[αMeK]K([AEEA-AEEA-γGlu-Lauroyl])FIAFK([AEEA-AEEA-γGlu-Lauroyl])VEGG-NH2; N-terminus assumed)	–	–	–	–	19.9 nM	19.9 nM
CCCCCCCCCCCC(=O)N[C@@H](CCC(=O)NCCOCCOCC(=O)NCCOCCOCC(=O)NCCCC[C@H](NC(=O)[C@H](CCC(=O)O)NC(=O)CNC(=O)[C@H](CCC(=O)O)NC(=O)[C@H](CC(C)C)NC(=O)[C@H](CCCCNC(=O)COCCOCCNC(=O)COCCOCCNC(=O)CC[C@H](NC(=O)CCCCCCCCCCC)C(=O)O)NC(=O)[C@H](CO)NC(=O)[C@](C)(CO)NC(=O)[C@@H](NC(=O)[C@H](CC(=O)O)NC(=O)[C@H](CO)NC(=O)[C@@H](NC(=O)[C@](C)(Cc1ccccc1)NC(=O)[C@H](CO)NC(=O)CNC(=O)[C@H](CCC(=O)O)NC(=O)C(C)(C)NC(=O)[C@@H](N)Cc1c[nH]cn1)[C@@H](C)O)C(C)C)C(=O)N[C@@H](C)C(=O)N[C@@](C)(CCCCN)C(=O)N[C@@H](CCC(=O)O)C(=O)N[C@@H](Cc1ccccc1)C(=O)N[C@H](C(=O)N[C@@H](C)C(=O)N[C@@H](Cc1ccccc1)C(=O)N[C@@H](CCCCNC(=O)COCCOCCNC(=O)COCCOCCNC(=O)CC[C@H](NC(=O)CCCCCCCCCCC)C(=O)O)C(=O)N[C@H](C(=O)N[C@@H](CCC(=O)O)C(=O)NCC(=O)NCC(N)=O)C(C)C)[C@@H](C)CC)C(=O)O [compound 481] (H-H[Aib]EGS[αMeF]TSDV[αMeS]SK([AEEA-AEEA-γGlu-Lauroyl])LEGEK([AEEA-AEEA-γGlu-Lauroyl])A[αMeK]EFIAFK([AEEA-AEEA-γGlu-Lauroyl])VEGG-NH2; N-terminus assumed)	–	–	–	–	19.8 nM	19.8 nM
CC[C@H](C)[C@H](NC(=O)[C@](C)(Cc1ccccc1)NC(=O)[C@H](CCC(=O)O)NC(=O)[C@](C)(CCCCN)NC(=O)[C@H](C)NC(=O)[C@H](C)NC(=O)[C@H](CCC(=O)O)NC(=O)CNC(=O)[C@H](CCC(=O)O)NC(=O)[C@H](CC(C)C)NC(=O)[C@](C)(Cc1ccccc1)NC(=O)[C@H](CO)NC(=O)[C@](C)(CO)NC(=O)[C@@H](NC(=O)[C@H](CC(=O)O)NC(=O)[C@H](CCC(=O)O)NC(=O)[C@@H](NC(=O)[C@](C)(Cc1ccccc1)NC(=O)[C@H](CO)NC(=O)CNC(=O)[C@H](CCC(=O)O)NC(=O)C(C)(C)NC(=O)[C@@H](N)Cc1c[nH]cn1)[C@@H](C)O)C(C)C)C(=O)N[C@@H](C)C(=O)N[C@@](C)(Cc1ccccc1)C(=O)N[C@H](C(=O)N[C@H](C(=O)N[C@@](C)(CCCCN)C(=O)NCC(=O)NCC(N)=O)C(C)C)C(C)C [compound 28] (H-H[Aib]EGS[αMeF]TEDV[αMeS]S[αMeF]LEGEAA[αMeK]E[αMeF]IA[αMeF]VV[αMeK]GG-NH2)	≥ 100 nM	≥ 100 nM	≥ 100 nM	≥ 100 nM	–	–

Continued, values first:

EC50 [1, 3]	EC50 [1, 4]	EC50 [2, 5]	EC50 [2, 6]	EC50 [1, 7]	EC50 [2, 8]	Structure (SMILES)
≥ 27 nM	≥ 27 nM	≥ 27 nM	≥ 27 nM	–	–	CCCCCCCCCCCC(=O)N[C@@H](CCC(=O)N[C@@H](CCC(=O)NCCCC[C@H](NC(=O)[C@H](C)NC(=O)[C@H](C)NC(=O)[C@H](CCC(=O)O)NC(=O)CNC(=O)[C@H](CCC(=O)O)NC(=O)[C@H](CC(C)C)NC(=O)[C@](C)(Cc1ccccc1)NC(=O)[C@H](CO)NC(=O)[C@](C)(CO)NC(=O)[C@@H](NC(=O)[C@H](CC(=O)O)NC(=O)[C@H](CO)NC(=O)[C@@H](NC(=O)[C@](C)(Cc1ccccc1)NC(=O)[C@H](CO)NC(=O)CNC(=O)[C@H](CCC(=O)O)NC(=O)C(C)(C)NC(=O)[C@@H](N)Cc1c[nH]cn1)[C@@H](C)O)C(C)C)C(=O)N[C@@H](CCC(=O)O)C(=O)N[C@@](C)(Cc1ccccc1)C(=O)N[C@H](C(=O)N[C@@H](C)C(=O)N[C@@](C)(Cc1ccccc1)C(=O)N[C@H](C(=O)N[C@H](C(=O)N[C@@](C)(CCCCN)C(=O)NCC(=O)NCC(N)=O)C(C)C)C(C)C)[C@@H](C)CC)C(=O)O)C(=O)O [compound 129]
≥ 26 nM	≥ 26 nM	≥ 26 nM	≥ 26 nM	–	–	CC[C@H](C)[C@H](NC(=O)[C@](C)(Cc1ccccc1)NC(=O)[C@H](CCC(=O)O)NC(=O)[C@H](CCCCNC(=O)COCCOCCNC(=O)COCCOCCNC(=O)CCCCCCCCCCCCCCCCC(=O)O)NC(=O)[C@H](C)NC(=O)[C@H](C)NC(=O)[C@H](CCC(=O)O)NC(=O)CNC(=O)[C@H](CCC(=O)O)NC(=O)[C@H](CC(C)C)NC(=O)[C@](C)(Cc1ccccc1)NC(=O)[C@H](CO)NC(=O)[C@](C)(CO)NC(=O)[C@@H](NC(=O)[C@H](CC(=O)O)NC(=O)[C@H](CO)NC(=O)[C@@H](NC(=O)[C@](C)(Cc1ccccc1)NC(=O)[C@H](CO)NC(=O)CNC(=O)[C@H](CCC(=O)O)NC(=O)C(C)(C)NC(=O)[C@@H](N)Cc1c[nH]cn1)[C@@H](C)O)C(C)C)C(=O)N[C@@H](C)C(=O)N[C@@](C)(Cc1ccccc1)C(=O)N[C@H](C(=O)N[C@H](C(=O)N[C@@](C)(CCCCN)C(=O)NCC(=O)NCC(N)=O)C(C)C)C(C)C [compound 162]
≥ 100 nM	≥ 100 nM	≥ 100 nM	≥ 100 nM	–	–	CC[C@H](C)[C@H](NC(=O)[C@](C)(Cc1ccccc1)NC(=O)[C@H](CCC(=O)O)NC(=O)[C@](C)(CCCCN)NC(=O)[C@H](C)NC(=O)[C@H](C)NC(=O)[C@H](CCC(=O)O)NC(=O)CNC(=O)[C@H](CCC(=O)O)NC(=O)[C@@H](NC(=O)[C@](C)(Cc1ccccc1)NC(=O)[C@H](CO)NC(=O)[C@H](CO)NC(=O)[C@@H](NC(=O)[C@H](CC(=O)O)NC(=O)[C@H](CO)NC(=O)[C@@H](NC(=O)[C@](C)(Cc1ccccc1)NC(=O)[C@H](CO)NC(=O)CNC(=O)[C@H](CCC(=O)O)NC(=O)C(C)(C)NC(=O)[C@@H](N)Cc1c[nH]cn1)[C@@H](C)O)C(C)C)C(C)C)C(=O)N[C@@H](C)C(=O)N[C@@](C)(Cc1ccccc1)C(=O)N[C@H](C(=O)N[C@H](C(=O)N[C@@](C)(CCCCN)C(=O)NCC(=O)NCC(N)=O)C(C)C)C(C)C [compound 10] (H-H[Aib]EGS[αMeF]TSDVSS[αMeF]VEGEAA[αMeK]E[αMeF]IA[αMeF]VV[αMeK]GG-NH2; N-terminus assumed)
390 nM	240 nM	480 nM	480 nM	–	–	CC[C@H](C)[C@H](NC(=O)[C@H](Cc1ccccc1)NC(=O)[C@H](CCC(=O)O)NC(=O)[C@H](CCCCN)NC(=O)[C@H](C)NC(=O)[C@H](C)NC(=O)[C@H](CCC(N)=O)NC(=O)CNC(=O)[C@H](CCC(=O)O)NC(=O)[C@H](CC(C)C)NC(=O)[C@H](Cc1ccc(O)cc1)NC(=O)[C@H](CO)NC(=O)C(C)(C)NC(=O)[C@@H](NC(=O)[C@H](CC(=O)O)NC(=O)[C@H](CO)NC(=O)[C@@H](NC(=O)[C@H](Cc1ccccc1)NC(=O)[C@@H](NC(=O)CNC(=O)[C@H](CCC(=O)O)NC(=O)C(C)(C)NC(=O)[C@@H](N)Cc1c[nH]cn1)[C@@H](C)O)[C@@H](C)O)C(C)C)C(=O)N[C@@H](C)C(=O)N[C@@H](Cc1c[nH]c2ccccc12)C(=O)N[C@@H](CC(C)C)C(=O)N[C@H](C(=O)N[C@@H](CCCCN)C(=O)NCC(=O)N[C@@H](CCCNC(=N)N)C(N)=O)C(C)C [compound 22] (H-H[Aib]EGTFTSDV[Aib]SYLEGQAAKEFIAWLVKGR-NH2; N-terminus assumed)
